Values quoted from earlier work, collected in patent US20050107349A1, “Method for the treatment or prevention of respiratory disorders with a cyclooxygenase-2 inhibitor in combination with a muscarinic receptor antagonist and compositions therewith” (Pharmacia Corporation, priority 2003, published 2005).

How the values were obtained:
[1] = test system: subjects suffering from asthma

## C[N+]1(C)[C@@H]2C[C@@H](OC(=O)C(O)(c3cccs3)c3cccs3)C[C@H]1[C@@H]1O[C@@H]12 [tiotropium, (1α, 2β, 4β, 5α, 7β)-7-[(hydroxy-2-thienylacetyl)oxy]-9,9-dimethyl-3-oxa-9-azoniatricyclo [3.3.1.0^2,4]nonane bromide monohydrate]
Patients with COPD
  dose-dependent and prolonged bronchodilator effect (duration): ≤ 48 h
[1]
  bronchodilation: prolonged bronchodilation
